Measured values taken from the supplement of paper PMC10307832.

What was measured:
Assay in all cases: relative viability (nuclei count vs DMSO), 5 days (fraction); higher = more cells survive
[1] = system: NCI-H2405
Method in brief: (§1)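 Cells from lung cancer lines were seeded into 1536-well plates and, one day later, dosed by pin tool. Treatments were either a single drug or a fixed dose of an anchor drug with five library-drug doses (not always all listed) in √10 steps. After 5 days, nuclei were stained in a one-step fixation (final 0.05% Triton X-100, 1% formaldehyde, 1 ug/ml Hoechst) and counted on 4× images, and relative viability is the treated-to-vehicle nuclei ratio, as the median of duplicate plates.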

[2] = system: A-427
Method in brief: as §1

[3] = system: EMC-BAC-2
Method in brief: as §1

[4] = system: HCC-78
Method in brief: as §1

[5] = system: NCI-H1993
Method in brief: as §1

[6] = system: NCI-H838
Method in brief: as §1

[7] = system: HCC-15
Method in brief: as §1

[8] = system: NCI-H23
Method in brief: as §1

[9] = system: LC-2-ad
Method in brief: as §1

[10] = system: ChaGo-K-1
Method in brief: as §1

[11] = system: HCC-366
Method in brief: as §1

[12] = system: HARA
Method in brief: as §1

[13] = system: NCI-H1944
Method in brief: as §1

[14] = system: NCI-H1734
Method in brief: as §1

[15] = system: ABC-1
Method in brief: as §1

[16] = system: NCI-H1793
Method in brief: as §1

[17] = system: NCI-H2126
Method in brief: as §1

[18] = system: NCI-H2023
Method in brief: as §1

[19] = system: COR-L23
Method in brief: as §1

[20] = system: SK-LU-1
Method in brief: as §1

[21] = system: NCI-H2009
Method in brief: as §1

[22] = system: UMC-11
Method in brief: as §1

O=C(O)c1ccc(-c2c[nH]c3ncc(-c4ccccc4)cc23)cc1C1CCCC1 + NC(=O)Nc1cc(-c2cccc(F)c2)sc1C(=O)N[C@H]1CCCNC1 [AZD7762] (partner 0.2 µM)
relative viability ([1]; first compound 0.04 µM): 0.73
relative viability ([1]; first compound 0.1265 µM): 0.919
relative viability ([1]; first compound 0.4 µM): 0.767
relative viability ([1]; first compound 1.265 µM): 0.583
relative viability ([2]; first compound 0.04 µM): 0.826
relative viability ([2]; first compound 0.1265 µM): 0.911
relative viability ([2]; first compound 0.4 µM): 0.893
relative viability ([2]; first compound 1.265 µM): 0.726
relative viability ([3]; first compound 0.04 µM): 1.1
relative viability ([3]; first compound 0.1265 µM): 1.38
relative viability ([3]; first compound 0.4 µM): 1.23
relative viability ([3]; first compound 1.265 µM): 0.981
relative viability ([4]; first compound 0.1265 µM): 0.734
relative viability ([4]; first compound 0.4 µM): 0.779
relative viability ([4]; first compound 1.265 µM): 0.712
relative viability ([5]; first compound 0.04 µM): 0.776
relative viability ([5]; first compound 0.1265 µM): 0.814
relative viability ([5]; first compound 0.4 µM): 0.832
relative viability ([5]; first compound 1.265 µM): 0.615
relative viability ([6]; first compound 0.04 µM): 0.978
relative viability ([6]; first compound 0.1265 µM): 1.07
relative viability ([6]; first compound 0.4 µM): 0.992
relative viability ([6]; first compound 1.265 µM): 0.92
relative viability ([7]; first compound 0.04 µM): 1.22
relative viability ([7]; first compound 0.1265 µM): 1.45
relative viability ([7]; first compound 0.4 µM): 1.42
relative viability ([7]; first compound 1.265 µM): 1.03
relative viability ([8]; first compound 0.04 µM): 0.218
relative viability ([8]; first compound 0.1265 µM): 0.297
relative viability ([8]; first compound 0.4 µM): 0.237
relative viability ([8]; first compound 1.265 µM): 0.328
relative viability ([9]; first compound 0.04 µM): 0.853
relative viability ([9]; first compound 0.1265 µM): 0.926
relative viability ([9]; first compound 0.4 µM): 0.835
relative viability ([9]; first compound 1.265 µM): 0.812
relative viability ([10]; first compound 0.04 µM): 0.845
relative viability ([10]; first compound 0.1265 µM): 1.02
relative viability ([10]; first compound 0.4 µM): 0.907
relative viability ([10]; first compound 1.265 µM): 0.848
relative viability ([11]; first compound 0.04 µM): 0.274
relative viability ([11]; first compound 0.1265 µM): 0.413
relative viability ([11]; first compound 0.4 µM): 0.399
relative viability ([11]; first compound 1.265 µM): 0.43
relative viability ([12]; first compound 0.04 µM): 0.4
relative viability ([12]; first compound 0.1265 µM): 0.596
relative viability ([12]; first compound 0.4 µM): 0.385
relative viability ([12]; first compound 1.265 µM): 0.554
relative viability ([13]; first compound 0.04 µM): 0.464
relative viability ([13]; first compound 0.1265 µM): 0.622
relative viability ([13]; first compound 0.4 µM): 0.637
relative viability ([13]; first compound 1.265 µM): 0.802
relative viability ([14]; first compound 0.04 µM): 0.534
relative viability ([14]; first compound 0.1265 µM): 0.68
relative viability ([14]; first compound 0.4 µM): 0.606
relative viability ([14]; first compound 1.265 µM): 0.645
relative viability ([15]; first compound 0.04 µM): 0.726
relative viability ([15]; first compound 0.1265 µM): 0.965
relative viability ([15]; first compound 0.4 µM): 0.89
relative viability ([15]; first compound 1.265 µM): 0.837
relative viability ([16]; first compound 0.04 µM): 0.513
relative viability ([16]; first compound 0.1265 µM): 0.752
relative viability ([16]; first compound 0.4 µM): 0.544
relative viability ([16]; first compound 1.265 µM): 0.798
relative viability ([17]; first compound 0.04 µM): 1.02
relative viability ([17]; first compound 0.1265 µM): 1.11
relative viability ([17]; first compound 0.4 µM): 1.08
relative viability ([17]; first compound 1.265 µM): 1

CC1(C)CCC(c2ccc(Cl)cc2)=C(CN2CCN(c3ccc(C(=O)NS(=O)(=O)c4ccc(N[C@H](CCN5CCOCC5)CSc5ccccc5)c(S(=O)(=O)C(F)(F)F)c4)cc3)CC2)C1 [Navitoclax] + Nc1ncn([C@H]2C[C@H](O)[C@@H](CO)O2)c(=O)n1 [Decitabine] (partner 2 µM)
relative viability ([1]; first compound 0.005 µM): 0.75
relative viability ([1]; first compound 0.01581 µM): 0.812
relative viability ([1]; first compound 0.05 µM): 0.885
relative viability ([1]; first compound 0.1581 µM): 0.717
relative viability ([1]; first compound 0.5 µM): 0.771
relative viability ([2]; first compound 0.005 µM): 0.607
relative viability ([2]; first compound 0.01581 µM): 0.534
relative viability ([2]; first compound 0.05 µM): 0.517
relative viability ([2]; first compound 0.1581 µM): 0.521
relative viability ([2]; first compound 0.5 µM): 0.466
relative viability ([18]; first compound 0.005 µM): 0.22
relative viability ([18]; first compound 0.01581 µM): 0.248
relative viability ([18]; first compound 0.05 µM): 0.188
relative viability ([18]; first compound 0.1581 µM): 0.191
relative viability ([18]; first compound 0.5 µM): 0.229
relative viability ([3]; first compound 0.005 µM): 0.943
relative viability ([3]; first compound 0.01581 µM): 1.03
relative viability ([3]; first compound 0.05 µM): 0.963
relative viability ([3]; first compound 0.1581 µM): 0.915
relative viability ([3]; first compound 0.5 µM): 0.911
relative viability ([4]; first compound 0.005 µM): 0.759
relative viability ([4]; first compound 0.01581 µM): 0.732
relative viability ([4]; first compound 0.05 µM): 0.605
relative viability ([4]; first compound 0.1581 µM): 0.636
relative viability ([4]; first compound 0.5 µM): 0.798
relative viability ([5]; first compound 0.005 µM): 0.659
relative viability ([5]; first compound 0.01581 µM): 0.751
relative viability ([5]; first compound 0.05 µM): 0.62
relative viability ([5]; first compound 0.1581 µM): 0.56
relative viability ([5]; first compound 0.5 µM): 0.596
relative viability ([6]; first compound 0.005 µM): 0.457
relative viability ([6]; first compound 0.01581 µM): 0.506
relative viability ([6]; first compound 0.05 µM): 0.47
relative viability ([6]; first compound 0.1581 µM): 0.423
relative viability ([6]; first compound 0.5 µM): 0.46
relative viability ([19]; first compound 0.005 µM): 0.428
relative viability ([19]; first compound 0.01581 µM): 0.425
relative viability ([19]; first compound 0.05 µM): 0.432
relative viability ([19]; first compound 0.1581 µM): 0.428
relative viability ([19]; first compound 0.5 µM): 0.437
relative viability ([7]; first compound 0.005 µM): 0.64
relative viability ([7]; first compound 0.01581 µM): 0.652
relative viability ([7]; first compound 0.05 µM): 0.386
relative viability ([7]; first compound 0.1581 µM): 0.625
relative viability ([7]; first compound 0.5 µM): 0.411
relative viability ([8]; first compound 0.005 µM): 0.287
relative viability ([8]; first compound 0.01581 µM): 0.32
relative viability ([8]; first compound 0.05 µM): 0.307
relative viability ([8]; first compound 0.1581 µM): 0.331
relative viability ([8]; first compound 0.5 µM): 0.272
relative viability ([9]; first compound 0.005 µM): 0.793
relative viability ([9]; first compound 0.01581 µM): 0.72
relative viability ([9]; first compound 0.05 µM): 0.673
relative viability ([9]; first compound 0.1581 µM): 0.701
relative viability ([9]; first compound 0.5 µM): 0.774
relative viability ([10]; first compound 0.005 µM): 0.498
relative viability ([10]; first compound 0.01581 µM): 0.549
relative viability ([10]; first compound 0.05 µM): 0.392
relative viability ([10]; first compound 0.1581 µM): 0.498
relative viability ([10]; first compound 0.5 µM): 0.52
relative viability ([20]; first compound 0.005 µM): 0.577
relative viability ([20]; first compound 0.01581 µM): 0.577
relative viability ([20]; first compound 0.05 µM): 0.389
relative viability ([20]; first compound 0.1581 µM): 0.609
relative viability ([20]; first compound 0.5 µM): 0.469
relative viability ([11]; first compound 0.005 µM): 0.34
relative viability ([11]; first compound 0.01581 µM): 0.4
relative viability ([11]; first compound 0.1581 µM): 0.332
relative viability ([11]; first compound 0.5 µM): 0.365
relative viability ([12]; first compound 0.005 µM): 0.463
relative viability ([12]; first compound 0.01581 µM): 0.736
relative viability ([12]; first compound 0.05 µM): 0.414
relative viability ([12]; first compound 0.1581 µM): 0.622
relative viability ([12]; first compound 0.5 µM): 0.466
relative viability ([21]; first compound 0.005 µM): 0.412
relative viability ([21]; first compound 0.01581 µM): 0.441
relative viability ([21]; first compound 0.05 µM): 0.382
relative viability ([21]; first compound 0.1581 µM): 0.342
relative viability ([21]; first compound 0.5 µM): 0.295
relative viability ([13]; first compound 0.005 µM): 0.466
relative viability ([13]; first compound 0.01581 µM): 0.455
relative viability ([13]; first compound 0.1581 µM): 0.384
relative viability ([13]; first compound 0.5 µM): 0.396
relative viability ([14]; first compound 0.005 µM): 0.51
relative viability ([14]; first compound 0.01581 µM): 0.512
relative viability ([14]; first compound 0.1581 µM): 0.5
relative viability ([14]; first compound 0.5 µM): 0.465
relative viability ([15]; first compound 0.005 µM): 0.889
relative viability ([15]; first compound 0.01581 µM): 1.21
relative viability ([15]; first compound 0.05 µM): 1.02
relative viability ([15]; first compound 0.1581 µM): 0.986
relative viability ([15]; first compound 0.5 µM): 1
relative viability ([22]; first compound 0.005 µM): 0.707
relative viability ([22]; first compound 0.01581 µM): 0.635
relative viability ([22]; first compound 0.05 µM): 0.616
relative viability ([22]; first compound 0.1581 µM): 0.547
relative viability ([22]; first compound 0.5 µM): 0.609
relative viability ([16]; first compound 0.005 µM): 0.448
relative viability ([16]; first compound 0.01581 µM): 0.595
relative viability ([16]; first compound 0.1581 µM): 0.49
relative viability ([16]; first compound 0.5 µM): 0.345
relative viability ([17]; first compound 0.005 µM): 0.595
relative viability ([17]; first compound 0.01581 µM): 0.647
relative viability ([17]; first compound 0.05 µM): 0.522
relative viability ([17]; first compound 0.1581 µM): 0.547
relative viability ([17]; first compound 0.5 µM): 0.564
